Conditions in all cases: activity in wells, twofold serial dilution assay; higher well number indicates higher activity
Assay [1] deals with activated human C1. The assay can be described thus: Test Code 026 (C1 inhibitor). Format: biochemical. From the text:
(§1) An active inhibitor protects C2 from C1 and C4; (ii) Test Code 035 (C3-C9 inhibitor)--This test determines the ability of the late components of human complement (C3-C9) to lyse EAC 142 in the presence of appropriate dilutions of the test compound. An active inhibitor protects EAC 142 from lysis by human C3-C9; (iii) Test Code 036 (C-Shunt inhibitor)--In this test human erythrocytes rendered fragile are lysed in autologous serum via the shunt pathway activated by cobra venom factor in the presence of appropriate dilutions of the test compound. Inhibition of the shunt pathway results in failure of lysis; (iv) Forssman Vasculitis Test--Here, the well known complement dependent lesion, Forssman vasculitis, is produced in guinea pigs by intradermal injection of rabbit anti-Forssman antiserum. […]

In assay [2] the test system is late components of human complement (C3-C9). Put plainly: Test Code 035 (C3-C9 inhibitor), lysis of EAC 142. Format: biochemical.
From the text: as §1

The subject of assay [3] is shunt pathway. Put plainly: Test Code 036 (C-Shunt inhibitor), lysis of fragile human erythrocytes in autologous serum, cobra venom factor activated. It counts as cell-based.
From the text: as §1

Where a name gives a salt, the structure may show the parent alone.

Two compounds from US4258034A, “Lactobionic acid poly(H-sulfate) and salts thereof useful as complement inhibitors” (American Cyanamid Company, priority 1979, dated 1981) can be followed below.

Turning to `O=C(O)[C@H](OS(=O)(=O)O)[C@@H](OS(=O)(=O)O)[C@H](O[C@@H]1O[C@H](COS(=O)(=O)O)[C@H](OS(=O)(=O)O)[C@H](OS(=O)(=O)O)[C@H]1OS(=O)(=O)O)[C@@H](COS(=O)(=O)O)OS(=O)(=O)O` [Lactobionic acid, octakis (H-sulfate), nonatrimethylamine sa] [Lactobionic acid, octakis (H-sulfate), nonatrimethylamine salt], the “C1 026 Wells” value in assay [1] amounted to 8 Wells. Further, the “C-Late 035 Wells” value in assay [2] was 2 Wells. Besides, in assay [3], the “Shunt Inhibition 036 Wells” value is reported as 4 Wells.
In the case of `O=C(O)[C@H](OS(=O)(=O)O)[C@@H](OS(=O)(=O)O)[C@H](O[C@@H]1O[C@H](COS(=O)(=O)O)[C@H](OS(=O)(=O)O)[C@H](OS(=O)(=O)O)[C@H]1OS(=O)(=O)O)[C@@H](COS(=O)(=O)O)OS(=O)(=O)O` [Lactobionic acid, octakis (H-sulfate) nonasodium salt] [Lactobionic acid, octakis (H-sulfate), nonasodium salt], in assay [1], the “C1 026 Wells” value amounted to 8 Wells. Moreover, the “C-Late 035 Wells” value in assay [2] is 2 Wells. The “Shunt Inhibition 036 Wells” value in assay [3] is 5 Wells.
